Measured values taken from patent publication US20020004458A1, “Methods for inducing production of isoflavone levels in plants using nuclear receptor ligands” (priority 2000, published 2002).

What was measured:
Assay type in all cases: in vivo
[1] = system: soybean cotyledons (cultivar Williams); test: Soybean snapped cotyledon assay: loading of isoflavone (daidzein) conjugate pools
Procedure: The snapped cotyledon assay is a minimal wound assay used to investigate the effects of test compounds in a non-primed background. The assay is performed by snapping cotyledons in two and placing the petiole side down in 0.5% water agar. Ten snapped cotyledons are used per treatment, and the subepidermal cells exposed by snapping are treated with glucan defense elicitor and/or the effector being examined. The cotyledons are incubated in the light for 48 hr as in the cut cotyledon assay. Both proximal (first cell layer) and distal (second and third cell layers) are harvested for analysis by HPLC (see below). Full details of this assay can be found in the publication: Graham, T. L. and Graham, M. Y. 1996. Signaling in soybean phenylpropanoid responses: dissection of primary, secondary and conditioning-effects of light, wounding and elicitor treatments. Plant Physiol. 110:1123-1133, which is specifically incorporated herein by reference.
The snapped cotyledon assay is “naive”. That is, it is not pre-disposed or primed for competency for the elicitation of phytoalexin glyceollin in response to the glucan elicitor. Thus, treatment with the glucan elicitor induces the formation of the isoflavones daidzein and genistein, but very little glyceollin. This is an excellent assay to study the effects of a chemical treatment on isoflavone metabolism by itself or in combination with the glucan. In the absence of the glucan, it gives an excellent picture of the effects of the compound alone on isoflavone metabolism. In the presence of the glucan, it tells us if the test compound can induce elicitation competency for the glyceollin response to the glucan.
(§1) High performance liquid chromatography (HPLC) is the . method of choice for determining the levels of isoflavone defense compounds in soybean. With a single HPLC analysis, one gets a complete and quantitative profile of up to 50 or more aromatic compounds, including all the isoflavones and their conjugates and the phytoalexins, including glyceollin. As little as 20 mg of plant tissue is needed and the method can be readily applied to cotyledon, leaf or any soybean tissue. This analytical method allows us to determine the nmoles/gm of each metabolite, which can then readily be processed to compare the percent increase or decrease of a given metabolite in comparison to either water or glucan treated control tissues. Routinely, tissues are extracted in 80% ethanol and subjected to water/acetonitrile gradient elution from a C18 reverse phase HPLC column. Full details of this procedure can be found in the publication: Graham, T. L. 1991. A Rapid, High Resolution High Performance Liquid Chromatography Profiling Procedure for Plant and Microbial Aromatic Secondary Metabolites. Plant Physiology 95:584-593, which is specifically incorporated herein by reference.
Cotyledons (10 per treatment) from 7 day old Williams variety soybean were treated with a formulation comprising estrogens, estrogen agonists, and peroxisome proliferators. Each NRL was dissolved either in water or first in isopropanol to give a saturated solution followed by rapid dilution in water. […] NRLs were tested over a concentration range of about 10 uM to 1 mM, using serial 3 fold dilutions from 1 mM. NRLs were tested both alone and in the presence of 30 ug/ml of the glucan elicitor from the fungal pathogen Phytophthora sojae. Concentrations of the NRL and glucan noted here are final concentrations on the treated cotyledon.
The exposed surface of each snapped cotyledon was treated with 7 μL of the NRL followed by 7 μL of the glucan or water. Cotyledons were incubated in constant light (200 t;,Einsetins) for 48 hr. At 48 hr, a thin (translucent) section was harvested from the treated cotyledon surface. Sections from the 10 cotyledons for each treatment were pooled and extracted in 80% ethanol (400 μL for each 50 mG fresh weight). The extract was then subjected to HPLC as described above. […]

[2] = system: soybean cotyledons (cultivar Williams); test: Soybean cut cotyledon assay: loading of daidzein conjugate / isoflavone pools; conditions: for Percent increase in total daidzein conjugate pools compared to a water control (Table 2) / Percent increase in total daidzein conjugate pools compared to a water control (Table 4): 33 uM, average of two experiments
Procedure: (§2) The cut cotyledon assay is used to investigate both the ability of the nuclear receptor ligand to activate basal elicitation competency in plants, and to evaluate the ability of a second compound such as the glucan defense elicitor from the fungal pathogen Phytophthora sojae to enhance glyceollin elicitation competency in plants in which the isoflavone pools were “loaded” by the action of the ligand. The level of isoflavones in the cotyledon tissues are measured after the addition of different nuclear receptor ligands to determine the effectiveness of each in inducing the basal production of isoflavones in cotyledon tissues. In such studies, the addition of the nuclear receptor ligand first “primes” the cut cotyledon, i.e., increases the levels of the isoflavone daidzen. That is, the competency for the elicitation of the phytoalexin glyceollin in response to the glucan elicitor from Phytophthora sojae is already partially activated. This means that increases in the isoflavone daidzein, which is the precursor for glyceollin, are usually rapidly shunted into glyceollin when the glucan defense elicitor is added to the system. Thus, the ability of the ligand to enhance glyceollin elicitation competency by “loading” the isoflavone pools can also be measured.
(§3) Cotyledons from 7-8 day old soybean seedlings are removed from the plant and cut on the lower surface to expose subepidermal tissues. A 30 p,L drop of test compound (elicitor and/or loader) is placed on the cut surface. Ten cotyledons are used per treatment and arranged in a petri plate containing a wet filter paper to keep the cotyledons moist. After incubation at room temperature at approximately 200 p.Einsteins of light for 48 hr the cotyledon tissues are harvested for analysis. Tissues for analysis are harvested by cutting a vertical column of cells from the cotyledon using a number 1 cork borer. The column of cells is then subsampled by cutting slices of cells progressively away from the original cut surface. The first section is approximately 4 cell layers thick and the second two are approximately 8 cell layers thick. These allow the examination of proximal and distal effects of treatments, respectively. Tissues are analyzed by HPLC as noted below. Full details of this assay can be found in the publication: Graham, T. L., and Graham, M. Y. 1991. Glyceollin Elicitors Induce Major But Distinctly Different Shifts in Isoflavonoid Metabolism in Local and Distal Cell Populations. Molecular Plant Microbe Interactions 4:60-68, which is specifically incorporated herein by reference.
as §1
(§4) Cotyledons (10 per treatment) from 7 day old Williams variety soybean were treated with a formulation comprising estrogens, estrogen agonists, and peroxisome proliferators. […]

[3] = system: soybean cotyledons (cultivar Williams); test: Soybean cut cotyledon assay: potentiation of glyceollin (phytoalexin) elicitation by glucan elicitor; conditions: 33 uM, applied immediately before glucan elicitor and 10 uM orthovanadate, 48 hr, average of two experiments
Procedure: as §2, §3, §1, §4

[4] = system: cotyledons of lima bean, mung bean, green bean, peanuts, and chickpeas; test: Cut cotyledon assay on legumes other than soybean: increase in isoflavones; conditions: ergosterol at 100 p,M; range in each plant species; isoflavones identified by ultraviolet spectra
soybean primary leaves = test: Soybean leaf infiltration: isoflavone increases after ergosterol treatment; conditions: 48 hours, over control
Procedure: as §1
True leaves of soybean plants are also treated as described above in Example 1. For tests on true leaves of soybean or other plants, two methods are used. In the laboratory a small spot on the leaves is vacuum filtrated using a filter disc platform hooked to a water aspirator. The leaf is placed on the filter disc platform and mild suction applied. A drop of the glucan elicitor and the nuclear receptor ligand formulation is then placed on the exposed surface of the leaf and allowed to infiltrate the tissue through the leaf stomatal pores. For the greenhouse or field, the nuclear receptor ligand is added to a surfactant to emulsify and disperse the ligand. In all of these assays, the tissues are again analyzed by HPLC as described above.
Moreover, the isoflavone formononetin is normally found only as a trace metabolite in soybean tissues. It is commonly found in chickpea. Treatment of soybean leaves with a nuclear receptor ligand, however, caused very significant accumulations of daidzein and formononetin aglycones and genistein conjugates. […] Ergosterol was directly infiltrated into the primary leaves, which were analyzed after 48 hours.

[5] = 33 uM, average of two experiments
[6] = ergosterol 1 micromolar infiltrated into primary leaves
[7] = ergosterol 10 micromolar infiltrated into primary leaves
[8] = ergosterol 100 micromolar infiltrated into primary leaves
[9] = cut cotyledon assay, Williams cotyledons, concentrations 50-500 p,M

SMILES: CC(C)(Oc1ccccc1Cl)C(=O)O [CPMPA, 2-(o-chlorophenoxy)-2-methylpropionic acid]
- Percent increase in daidzein conjugate pools compared to a water control (Table 3) [1, 5]: +42%

SMILES: C[C@]12CC[C@@H]3c4ccc(O)cc4CC[C@H]3[C@@H]1CC[C@@H]2O [Beta-Estradiol, 17-beta-estradiol]
- Percent increase in total daidzein conjugate pools compared to a water control (Table 2) ([2]; cut cotyledon assay): 64%
- Percent increase in total daidzein conjugate pools compared to a water control (Table 4) ([2]; cut cotyledon assay): 64%
- Percent increase in daidzein conjugate pools compared to a water control (Table 3) [1, 5]: +64%
- Percent increase in glyceollin elicitation compared to a glucan elicitor control [3]: 205%

SMILES: CC(C)[C@@H](C)/C=C/[C@@H](C)[C@H]1CC[C@H]2C3=CC=C4C[C@@H](O)CC[C@]4(C)[C@H]3CC[C@]12C [Ergosterol, ergosterol]
- Increases in isoflavones [4]: 2-60 fold
- Percent increase in total daidzein conjugate pools compared to a water control (Table 2) ([2]; cut cotyledon assay): 60%
- Percent increase in total daidzein conjugate pools compared to a water control (Table 4) ([2]; cut cotyledon assay): 60%
- Percent increase in daidzein conjugate pools compared to a water control (Table 3) [1, 5]: +60%
- Increase in Daidzein Aglycone (soybean primary leaves; [6]): 5X
- Increase in Formononetin Aglycone (soybean primary leaves; [6]): 24X
- Increase in Genistein Conjugates (soybean primary leaves; [6]): 2X
- Increase in Daidzein Aglycone (soybean primary leaves; [7]): 3X
- Increase in Formononetin Aglycone (soybean primary leaves; [7]): 27X
- Increase in Genistein Conjugates (soybean primary leaves; [7]): 1.1X
- Increase in Daidzein Aglycone (soybean primary leaves; [8]): 2.4X
- Increase in Formononetin Aglycone (soybean primary leaves; [8]): 4X
- Increase in Genistein Conjugates (soybean primary leaves; [8]): None
- Percent increase in glyceollin elicitation compared to a glucan elicitor control [3]: 260%

SMILES: CC(=O)[C@H]1CC[C@H]2[C@@H]3CCC4=CC(=O)CC[C@]4(C)[C@H]3CC[C@]12C [Progesterone, progesterone]
- Range of increase of isoflavones over the concentration range [2, 9]: 20-60%

SMILES: C[C@H]1CCCC(=O)CCC/C=C/c2cc(O)cc(O)c2C(=O)O1 [Zearalenone, zearalenone]
- Percent increase in total daidzein conjugate pools compared to a water control (Table 2) ([2]; cut cotyledon assay): 58%
- Percent increase in total daidzein conjugate pools compared to a water control (Table 4) ([2]; cut cotyledon assay): 58%
- Percent increase in glyceollin elicitation compared to a glucan elicitor control [3]: 242%

SMILES: CC(=O)[C@H]1CC[C@H]2[C@@H]3CC=C4C[C@@H](O)CC[C@]4(C)[C@H]3CC[C@]12C [5-pregnenolone]
- Range of increase of isoflavones over the concentration range [2, 9]: 5-20%

SMILES: C[C@]12CCC(=O)C=C1CC[C@@H]1[C@@H]2[C@@H](O)C[C@@]2(C)[C@H]1CC[C@]2(O)C(=O)CO [hydrocortisone]
- Range of increase of isoflavones over the concentration range [2, 9]: 25-50%

SMILES: C[C@]12CC[C@@H]3c4ccc(O)cc4CC[C@H]3[C@@H]1C[C@@H](O)[C@@H]2O [Estriol, estriol]
- Percent increase in total daidzein conjugate pools compared to a water control (Table 2) ([2]; cut cotyledon assay): 45%
- Percent increase in total daidzein conjugate pools compared to a water control (Table 4) ([2]; cut cotyledon assay): 45%
- Percent increase in daidzein conjugate pools compared to a water control (Table 3) [1, 5]: +45%
- Percent increase in glyceollin elicitation compared to a glucan elicitor control [3]: 177%

SMILES: CC/C(=C(/CC)c1ccc(O)cc1)c1ccc(O)cc1 [Diethylstilbestrol, diethylstilbestrol]
- Percent increase in total daidzein conjugate pools compared to a water control (Table 2) ([2]; cut cotyledon assay): 36%
- Percent increase in total daidzein conjugate pools compared to a water control (Table 4) ([2]; cut cotyledon assay): 38%
- Percent increase in glyceollin elicitation compared to a glucan elicitor control [3]: 86%

SMILES: O=c1oc2cc(O)ccc2c2oc3cc(O)ccc3c12 [Coumestrol]
- Percent increase in total daidzein conjugate pools compared to a water control (Table 2) ([2]; cut cotyledon assay): 54%
- Percent increase in total daidzein conjugate pools compared to a water control (Table 4) ([2]; cut cotyledon assay): 54%
- Percent increase in glyceollin elicitation compared to a glucan elicitor control [3]: 226%

SMILES: CC(C)(Oc1ccc(C2CC2(Cl)Cl)cc1)C(=O)O (centres unmarked) [Ciprofibrate, ciprofibrate]
- Percent increase in total daidzein conjugate pools compared to a water control (Table 2) ([2]; cut cotyledon assay): 52%
- Percent increase in total daidzein conjugate pools compared to a water control (Table 4) ([2]; cut cotyledon assay): 52%
- Percent increase in daidzein conjugate pools compared to a water control (Table 3) [1, 5]: +52%
- Percent increase in glyceollin elicitation compared to a glucan elicitor control [3]: 199%

SMILES: C[C@]12CCC(=O)C=C1CC[C@@H]1[C@@H]2C(=O)C[C@@]2(C)[C@H]1CC[C@]2(O)C(=O)CO [cortisone]
- Range of increase of isoflavones over the concentration range [2, 9]: 30-100%

SMILES: C[C@@H]1C[C@H]2[C@@H]3CCC4=CC(=O)C=C[C@]4(C)[C@@]3(F)[C@@H](O)C[C@]2(C)[C@@]1(O)C(=O)CO [dexamethasone]
- Range of increase of isoflavones over the concentration range [2, 9]: 0-10%

SMILES: O=c1c(-c2ccc(O)cc2)coc2cc(O)cc(O)c12 [Genistein, genistein]
- Percent increase in daidzein conjugate pools compared to a water control (Table 3) ([1]; genistein applied as smaller doses on an hourly basis for 8 hours): +54%

SMILES: C/C=C(/C(=C/C)c1ccc(O)cc1)c1ccc(O)cc1 [Dienestrol, dienestrol]
- Percent increase in total daidzein conjugate pools compared to a water control (Table 2) ([2]; cut cotyledon assay): 28%
- Percent increase in total daidzein conjugate pools compared to a water control (Table 4) ([2]; cut cotyledon assay): 28%
- Percent increase in daidzein conjugate pools compared to a water control (Table 3) [1, 5]: +28%
- Percent increase in glyceollin elicitation compared to a glucan elicitor control [3]: 75%

SMILES: C[C@]12CC[C@@H](O)C[C@@H]1CC[C@@H]1[C@@H]2CC[C@]2(C)C(=O)CC[C@@H]12 [androsterone]
- Range of increase of isoflavones over the concentration range ([2]; in vivo): 30-40%
